{
  "source": "patent US8080423B2",
  "about": "“Reagent containing protease reaction promoter and/or colorant stabilizer” (Asahi Kasei Pharma Corporation, priority 2004, dated 2011)",
  "key": {"[1]": {"system": "Neutral protease (manufactured by Toyobo Co., Ltd.)", "test": "Screening of protease reaction promoter (Example 1)", "format": "biochemical", "conditions": "for protease reaction promoting effect (in words): judged from Table 1; for AH − AL / AH (absorbance from primary calibrator at level 4 (9.88%)) / AL (absorbance from primary calibrator at level 2 (5.38%)): 660 nm", "description": "1) R-1: Reagent for Protein Decomposition\n2) R-2: Reagent for Glycated Amino Acid Detection\nThe following substances were independently used as a test sample. Note that concentrations described in parentheses each represent a final concentration of the substance in the reagent R1.\nAbsorbance before the addition of the reagent R-2 and 5 minutes after the addition was measured at 660 nm. […] The AH-AL shown in Table 1 is a difference obtained by subtracting absorbance AL which was obtained from the primary calibrator at level 2 (5.38%) from absorbance AH which was obtained from the primary calibrator at level 4 (9.88%). Here, if AH-AL is large, the sample is judged to have a protease reaction promoting effect. In particular, when AH-AL is 20 or more, the sample has an excellent promoting effect."}, "[2]": {"molecular_target": "hemoglobin (Homo sapiens, UniProt P68871+P69905)", "sequence (P69905 2-142 limits assumed)": "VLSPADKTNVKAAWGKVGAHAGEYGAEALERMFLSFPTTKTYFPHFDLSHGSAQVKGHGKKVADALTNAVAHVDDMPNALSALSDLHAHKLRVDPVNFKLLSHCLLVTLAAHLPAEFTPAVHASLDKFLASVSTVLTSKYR", "sequence (P68871 2-147 limits assumed)": "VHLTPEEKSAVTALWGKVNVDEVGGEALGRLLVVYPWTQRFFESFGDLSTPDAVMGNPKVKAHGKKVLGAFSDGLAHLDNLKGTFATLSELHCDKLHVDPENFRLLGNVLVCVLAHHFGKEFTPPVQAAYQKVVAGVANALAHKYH", "test": "Measurement of hemoglobin and stability of reagent (Example 9)", "format": "physicochemical", "conditions": "Example 2 reagent with 1% promoter; 660 nm; FIG. 1", "description": "By using the reagents of Example 2, measurement was performed for a standard product having a known hemoglobin concentration.\nMeasurement was performed by using an autoanalyzer (Hitachi autoanalyzer 7170S; manufactured by Hitachi Ltd.). 20 μl of a sample was added with 180 μl of each of the reagents, and changes in absorbance were measured at 660 nm. Water was used as a control, and differences in absorbance between the sample and the water were calculated after 5 minutes. 5-serially diluted products of the standard hemoglobin product were used as the sample.\nIn addition, a preservation test was performed for a reagent in which sarcosinate MN was used as a protease reaction promoter at 37° C. for 4 days. The measurement of 5.5 g/dl of the standard hemoglobin product was performed by using, as a calibrator, a 30-fold diluted product of a standard substance for HbA1c measurement (primary calibrator JDS HbA1c Lot2, manufactured by Health Care Technology Foundation, level 1, hemoglobin concentration of 135 g/L). As a result, the measurement values of the hemoglobin were 54 mAbs, 4.5 g/L before the preservation test and 50 mAbs, 4.6 g/L after the preservation test. From the results, it was assumed that the present reagent is stable for 6 months or longer under refrigeration."}, "[3]": {"molecular_target": "T1, protease (Bacillus licheniformis, UniProt P00780)", "T1 construct": "purchased Sigma Aldrich Japan K.K", "T1 sequence (P00780 106-379)": "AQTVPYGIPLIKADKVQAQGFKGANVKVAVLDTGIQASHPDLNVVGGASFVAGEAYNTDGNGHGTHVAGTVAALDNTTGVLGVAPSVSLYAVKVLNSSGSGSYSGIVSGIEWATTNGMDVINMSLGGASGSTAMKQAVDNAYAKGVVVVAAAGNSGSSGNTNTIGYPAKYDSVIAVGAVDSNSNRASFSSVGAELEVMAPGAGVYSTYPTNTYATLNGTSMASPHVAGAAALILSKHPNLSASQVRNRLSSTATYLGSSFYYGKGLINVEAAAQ", "test": "Effect of protease reaction promoter on glycated albumin measurement (Example 12)", "format": "biochemical", "description": "The reagents of Example 5 were used. 240 μl of the reagent R-1 which had been incubated to 37° C. was added with 8 μl of a control plasma H (manufactured by BML Inc.); […], and absorbance thereof was measured using a dominant wavelength of 546 nm and a subwavelength of 700 nm. A reaction was initiated at 37° C., and 80 μl of the R-2 reagent was added to the mixture exactly 5 minutes after the initiation. Absorbance before the addition of the R-2 reagent and after 5 minutes of the addition was measured. In addition, measurement was performed for a blank which was prepared by using distilled water instead of the substrate solution. The change in absorbance obtained from the control substrate solution was subtracted by the change in absorbance obtained from the blank sample, to thereby calculate ΔA0. Conversion of the values was performed by simultaneous measurement for a calibrator (manufactured by Asahi Kasei Pharma Corporation) for Lucica GA and comparison of absorbance. The measurement value for albumin was obtained from a difference in absorbance which was obtained by subtracting absorbance immediately before the addition of the R-2 reagent from absorbance immediately after the addition of the sample. […]"}, "[4]": {"test": "Screening of stabilizer for colorant, DA67 (Example 13)", "format": "physicochemical", "conditions": "DA-67, 660 nm, 37° C., additives at conc. (1%; IDA 1 mM; Zn, Al 0.1 mM; ferrocyanide 0.01 mM; sorbitol 5%; DMSO 10%)", "description": "(§1) The following substances were used as test samples. Note that concentrations described in parentheses each represent a final concentration of the substance in the reagent R-1.\n(§2) Tween-20 (1%), Brij35 (1%), Triton X-100 (1%), deoxycholic acid (1%), imino-diacetic acid (IDA; 1 mM), ZnSO4 (0.1 mM), AlCl3 (0.1 mM), potassium ferrocyanate (0.01 mM), sorbitol (5%), glucose (5%), sodium nitrite (2 mM), dimethylsulfoxide (DMSO; 10%) (those substances are manufactured by Wako Pure Chemical Industries, Inc.), 2-hydroxypropyl-β-cyclodextrin (2HP β CD; 0.5%, 2%, 5%) and methyl-β-cyclodextrin (M β CD; 0.5%, 2%, 5%) (those substances are manufactured by Nihon Shokuhin Kako Co., Ltd.).\n(§3) 500 μl of the R-1 reagent and 500 μl of the R-2 which had been incubated to 37° C. were mixed. The mixture was incubated to 37° C. for 2 minutes, and absorbance thereof (A0) was measured. The mixture was added with 10 μl of 500 μM hydrogen peroxide or distilled water. The whole was incubated to 37° C., and absorbance exactly 5 minutes after the addition of hydrogen peroxide (A1) was measured, to calculate a change in absorbance ΔA (A1-A0). The absorbance was measured using a wavelength of 750 nm when DA64 was used as the colorant, a wavelength of 660 nm when DA67 was used as the colorant, and a wavelength of 570 nm when 4-AA-TOOS was used as the colorant.\n(§4) Immediately after the preparation of the reagent, the reagent was preserved at 37° C. for 2 days and 9 days, and measurement of sensitivity of a blank which was distilled water and of hydrogen peroxide was performed."}, "[5]": {"test": "Screening of stabilizer for colorant, DA64 (Example 13)", "format": "physicochemical", "conditions": "DA-64, 750 nm, 37° C., additives at conc. (1%; IDA 1 mM; Zn, Al 0.1 mM; ferrocyanide 0.01 mM; sorbitol 5%; DMSO 10%)", "description": "as §1, §2, §3, §4"}, "[6]": {"test": "Screening of stabilizer for colorant, MBTH-TOOS (Example 13)", "format": "physicochemical", "conditions": "MBTH-TOOS, 570 nm, 37° C., additives at conc. (1%; IDA 1 mM; Zn, Al 0.1 mM; ferrocyanide 0.01 mM; sorbitol 5%; DMSO 10%)"}, "[7]": {"test": "Effect of catalase addition on reagent containing cyclodextrin and colorant (Example 14)", "format": "physicochemical", "conditions": "for 500 μM hydrogen peroxide / Blank: DA-67, 2% 2-hydroxypropyl-β-cyclodextrin, 500 U/ml catalase, 37° C.", "description": "as §3\nThe same operation method as in Example 13 was used. Immediately after the preparation of the reagent, the reagent was preserved at 37° C. for 2 days and 9 days, and measurement of sensitivity of a blank which was distilled water and of hydrogen peroxide was performed."}, "[8]": {"conditions": "test sample 1% in R-1, 20 or more = excellent promoting effect"}},
  "data": [
    {"compound": "CCCCCCCCCCCCOCCOCCOCCOCCOCCOCCOCCOCCOCCOCCOCC(=O)O", "note": "[AKYPO-RLM100, polyoxyethylene(10)lauryl ether acetic acid]", "values": [
      {"measurement": "protease reaction promoting effect (in words)", "setting": "[1]", "value": "effects were observed"},
      {"measurement": "AH − AL", "setting": "[1]; [8]", "value": 29.1, "unit": "mAbs"},
      {"measurement": "quantification of hemoglobin (in words)", "setting": "[2]", "value": "hemoglobin was able to be quantified"}
    ]},
    {"compound": "CCCCCCCCCCCC(=O)N(C)CCC(=O)[O-].[Na+]", "note": "[Alaninate LN-30, sodium lauroyl methyl alaninate]", "values": [
      {"measurement": "protease reaction promoting effect (in words)", "setting": "[1]", "value": "effects were observed"},
      {"measurement": "AH (absorbance from primary calibrator at level 4 (9.88%))", "setting": "[1]; test sample 1% in R-1", "value": 92.3},
      {"measurement": "AL (absorbance from primary calibrator at level 2 (5.38%))", "setting": "[1]; test sample 1% in R-1", "value": 65.6},
      {"measurement": "AH − AL", "setting": "[1]; [8]", "value": 26.7, "unit": "mAbs"},
      {"measurement": "sensitivity of the GA measurement", "setting": "[3]; control serum, no dilution, with protease reaction promoter (without: 32 mAbs)", "value": 48, "unit": "mAbs"},
      {"measurement": "increase of reaction rate", "setting": "[3]; with vs without protease reaction promoter", "value": 1.5, "unit": "folds"}
    ]},
    {"compound": "CCCCCCCCCCCCCCCCCC(=O)N(C)CCS(=O)(=O)[O-].[Na+]", "note": "[SMT, sodium N-stearoyl methyl taurinate]", "values": [
      {"measurement": "protease reaction promoting effect (in words)", "setting": "[1]", "value": "effects were observed"},
      {"measurement": "AH (absorbance from primary calibrator at level 4 (9.88%))", "setting": "[1]; test sample 1% in R-1", "value": 110.2},
      {"measurement": "AL (absorbance from primary calibrator at level 2 (5.38%))", "setting": "[1]; test sample 1% in R-1", "value": 86.4},
      {"measurement": "AH − AL", "setting": "[1]; [8]", "value": 23.8, "unit": "mAbs"},
      {"measurement": "quantification of hemoglobin (in words)", "setting": "[2]", "value": "hemoglobin was able to be quantified"}
    ]},
    {"compound": "OC[C@@H](O)[C@@H](O)[C@H](O)[C@@H](O)CO", "note": "[Sorbitol, sorbitol, reference compound]", "values": [
      {"measurement": "AH (absorbance from primary calibrator at level 4 (9.88%))", "setting": "[1]; test sample 5% in R-1", "value": 68.3},
      {"measurement": "AH − AL", "setting": "[1]; test sample 5% in R-1", "value": 6.5, "unit": "mAbs"},
      {"measurement": "AL (absorbance from primary calibrator at level 2 (5.38%))", "setting": "[1]; test sample 5% in R-1", "value": 61.8},
      {"measurement": "blank (distilled water) change in absorbance", "setting": "[4]; 0 days", "value": 0.093, "unit": "Abs"},
      {"measurement": "blank (distilled water) change in absorbance", "setting": "[4]; 2 days", "value": 2.545, "unit": "Abs"},
      {"measurement": "blank (distilled water) change in absorbance", "setting": "[5]; 0 days", "value": "−0.010", "unit": "Abs"},
      {"measurement": "blank (distilled water) change in absorbance", "setting": "[5]; 2 days", "value": 0.080, "unit": "Abs"},
      {"measurement": "blank (distilled water) change in absorbance", "setting": "[5]; 9 days", "value": 0.230, "unit": "Abs"},
      {"measurement": "blank (distilled water) change in absorbance", "setting": "[6]; 0 days", "value": 0.151, "unit": "Abs"},
      {"measurement": "blank (distilled water) change in absorbance", "setting": "[6]; 2 days", "value": 1.225, "unit": "Abs"}
    ]},
    {"compound": "TritonX-100 [reference compound]", "values": [
      {"measurement": "AH (absorbance from primary calibrator at level 4 (9.88%))", "setting": "[1]; test sample 1% in R-1", "value": 44.9},
      {"measurement": "AL (absorbance from primary calibrator at level 2 (5.38%))", "setting": "[1]; test sample 1% in R-1", "value": 39.7},
      {"measurement": "AH − AL", "setting": "[1]; [8]", "value": 5.2, "unit": "mAbs"},
      {"measurement": "blank (distilled water) change in absorbance", "setting": "[4]; 0 days", "value": 0.085, "unit": "Abs"},
      {"measurement": "blank (distilled water) change in absorbance", "setting": "[4]; 2 days", "value": 2.100, "unit": "Abs"},
      {"measurement": "blank (distilled water) change in absorbance", "setting": "[5]; 0 days", "value": "−0.005", "unit": "Abs"},
      {"measurement": "blank (distilled water) change in absorbance", "setting": "[5]; 2 days", "value": 0.080, "unit": "Abs"},
      {"measurement": "blank (distilled water) change in absorbance", "setting": "[5]; 9 days", "value": 0.221, "unit": "Abs"},
      {"measurement": "blank (distilled water) change in absorbance", "setting": "[6]; 0 days", "value": 0.146, "unit": "Abs"},
      {"measurement": "blank (distilled water) change in absorbance", "setting": "[6]; 2 days", "value": 1.135, "unit": "Abs"}
    ]},
    {"compound": "catalase", "values": [
      {"measurement": "500 μM hydrogen peroxide", "setting": "[7]; 0 days", "value": 0.510},
      {"measurement": "Blank", "setting": "[7]; 0 days", "value": 0.057},
      {"measurement": "500 μM hydrogen peroxide", "setting": "[7]; 2 days", "value": 0.335},
      {"measurement": "Blank", "setting": "[7]; 2 days", "value": 0.452},
      {"measurement": "500 μM hydrogen peroxide", "setting": "[7]; 9 days", "value": 0.304},
      {"measurement": "Blank", "setting": "[7]; 9 days", "value": 1.052},
      {"measurement": "effect of catalase addition on blank after preservation (in words)", "setting": "[7]; Table 4", "value": "the blank after preservation significantly decreased"}
    ]}
  ]
}
